{"source": "patent US8435549B2", "about": "“Halogen alkoxy spirocyclic tetramic and tetronic acid derivatives” (Bayer Cropscience AG, priority 2007, dated 2013)", "key": {"[1]": {"tested_on": "green peach aphid (Myzus persicae)", "test": "Enhancement of activity by ammonium/phosphonium salts in combination with penetrants, Myzus persicae test", "type": "in vivo", "description": "To produce a suitable preparation of active compound, 1 part by weight of active compound is mixed with the stated amounts of solvent and emulsifier, and the concentrate is diluted with water to the desired concentration. For application with ammonium or phosphonium salts and penetrants (rapeseed oil methyl ester 500 EW) these are added to the spray liquor in each case in a concentration of 1000 ppm.\nBell pepper plants (Capsicum annuum) which are heavily infested by the green peach aphid (Myzus persicae) are treated by spraying to runoff point with the active compound preparation of the desired concentration. After the desired period of time, the kill in % is determined. 100% means that all animals have been killed; 0% means that none of the animals have been killed."}, "[2]": {"tested_on": "cotton aphid (Aphis gossypii)", "test": "Enhancement of activity by ammonium/phosphonium salts, Aphis gossypii test", "type": "in vivo", "conditions": "Aphis gossypii on cotton, active compound 4 ppm", "description": "To produce a suitable preparation of active compound, 1 part by weight of active compound is mixed with the stated amounts of solvent and emulsifier, and the concentrate is diluted with emulsifier-containing water to the desired concentration. For application with ammonium or phosphonium salts, these are added to the spray liquor in a concentration of 1000 ppm.\nCotton plants (Gossypium hirsutum) which are heavily infested by the cotton aphid (Aphis gossypii) are treated by spraying to runoff point with the active compound preparation of the desired concentration.\nAfter the desired period of time, the kill in % is determined. 100% means that all the aphids have been killed; 0% means that none of the aphids have been killed."}}, "data": [{"smiles": "Cc1cc(Cl)cc(C)c1C1=C(O)[C@]2(CC[C@H](OCC(F)(F)F)CC2)NC1=O", "note": "[Example I-1-a-1]", "values": [{"measurement": "Kill rate/% after 6 days", "setting": "[1]; 0.8 ppm, +AS (1000 ppm)", "value": 0, "unit": "%"}, {"measurement": "Kill rate/% after 6 days", "setting": "[1]; 0.8 ppm, +RME (1000 ppm)", "value": 0, "unit": "%"}, {"measurement": "Kill rate/% after 6 days", "setting": "[1]; 0.8 ppm, +RME + AS (1000 ppm each)", "value": 95, "unit": "%"}, {"measurement": "Kill rate/% after 6 days", "setting": "[1]; 0.8 ppm, no additive", "value": 0, "unit": "%"}, {"measurement": "Kill rate/% after 6 days", "setting": "[1]; 4 ppm, +AS (1000 ppm)", "value": 90, "unit": "%"}, {"measurement": "Kill rate/% after 6 days", "setting": "[1]; 4 ppm, +RME (1000 ppm)", "value": 99, "unit": "%"}, {"measurement": "Kill rate/% after 6 days", "setting": "[1]; 4 ppm, +RME + AS (1000 ppm each)", "value": 100, "unit": "%"}, {"measurement": "Kill rate/% after 6 days", "setting": "[1]; 4 ppm, no additive", "value": 95, "unit": "%"}, {"measurement": "Kill rate/% after 6 days", "setting": "[2]; +AS (1000 ppm)", "value": 95, "unit": "%"}, {"measurement": "Kill rate/% after 6 days", "setting": "[2]; without AS", "value": 25, "unit": "%"}]}]}
